According to ChEMBL document CHEMBL3864146, “5-Alkyloxytryptamines are membrane-targeting, broad-spectrum antibiotics” (Bioorg Med Chem Lett, 2016):
Converted amounts (≈) assume the structure as drawn.

Columns and labels:
Salmonella typhimurium = test: Antibacterial activity against Salmonella typhimurium after 16 to 18 hrs by micro-dilution method; format: functional, Salmonella enterica subsp. enterica serovar Typhimurium; conditions: Salmonella enterica
Klebsiella aerogenes = test: Antibacterial activity against Enterobacter aerogenes after 16 to 18 hrs by micro-dilution method; format: functional
Morganella morganii = test: Antibacterial activity against Morganella morganii after 16 to 18 hrs by micro-dilution method; format: functional
Bacillus subtilis = test: Antibacterial activity against Bacillus subtilis 168 after 16 to 18 hrs by micro-dilution method; format: functional; conditions: subsp. subtilis str. 168
Staphylococcus aureus = test: Antibacterial activity against Staphylococcus aureus after 16 to 18 hrs by micro-dilution method; format: functional
Pseudomonas aeruginosa = test: Antibacterial activity against Pseudomonas aeruginosa after 16 to 18 hrs by micro-dilution method; format: functional
Edwardsiella tarda = test: Antibacterial activity against Edwardsiella tarda after 16 to 18 hrs by micro-dilution method; format: functional
Escherichia coli [1] = test: Antibacterial activity against Escherichia coli BW25113 after 16 to 18 hrs by micro-dilution method; format: functional
Shigella boydii = test: Antibacterial activity against Shigella boydii after 16 to 18 hrs by micro-dilution method; format: functional
Klebsiella pneumoniae = test: Antibacterial activity against Klebsiella pneumoniae after 16 to 18 hrs by micro-dilution method; format: functional
Acinetobacter baumannii = test: Antibacterial activity against Acinetobacter baumannii after 16 to 18 hrs by micro-dilution method; format: functional
Escherichia coli [2] = test: Antibacterial activity against tolC-deficient Escherichia coli BW25113 after 16 to 18 hrs by micro-dilution method; format: functional
Vibrio cholerae = test: Antibacterial activity against Vibrio cholerae after 16 to 18 hrs by micro-dilution method; format: functional

Row | SMILES | MIC (Salmonella typhimurium) [µg/mL] | MIC (Klebsiella aerogenes) [µg/mL] | MIC (Morganella morganii) [µg/mL] | MIC (Bacillus subtilis) [µg/mL] | MIC (Staphylococcus aureus) [µg/mL] | MIC (Pseudomonas aeruginosa) [µg/mL] | MIC (Edwardsiella tarda) [µg/mL] | MIC (Escherichia coli [1]) [µg/mL] | MIC (Shigella boydii) [µg/mL] | MIC (Klebsiella pneumoniae) [µg/mL] | MIC (Acinetobacter baumannii) [µg/mL] | MIC (Escherichia coli [2]) [µg/mL] | MIC (Vibrio cholerae) [µg/mL]
1 | CCCCCCCCCOc1cccc(N)c1 | > 80 | > 80 | > 80 | 40 (≈ 170 µM) | > 80 | > 80 | > 80 | > 40 | > 80 | > 80 | > 80 | 10 (≈ 42.5 µM) | > 80
2 | CCCCCCCCCOc1cccc(CN)c1 | 4.7 (≈ 18.8 µM) | 9.4 (≈ 37.7 µM) | 38 (≈ 152 µM) | 4.7 (≈ 18.8 µM) | 9.4 (≈ 37.7 µM) | > 75 | 19 (≈ 76.2 µM) | 9.4 (≈ 37.7 µM) | 9.4 (≈ 37.7 µM) | 9.4 (≈ 37.7 µM) | 9.4 (≈ 37.7 µM) | 4.7 (≈ 18.8 µM) | 4.7 (≈ 18.8 µM)
3 | CCCCCCCCCOc1ccc2[nH]ccc2c1 | > 83 | > 83 | > 83 | > 83 | > 83 | > 83 | > 83 | > 83 | > 83 | > 83 | > 83 | > 83 | > 83
4 | NCCc1c[nH]c2ccc(O)cc12 [SEROTONIN] | – | – | – | > 56.4 | > 56.4 | – | – | > 56.4 | – | – | > 56.4 | > 56.4 | –
5 | COc1ccc2[nH]cc(CCN)c2c1 [5-METHOXYTRYPTAMINE] | – | – | – | > 60.8 | > 60.8 | – | – | > 60.8 | – | – | > 60.8 | > 60.8 | –
6 | CCCCCCCCCOc1ccc2[nH]cc(CC[N+](C)(C)C)c2c1 | 26 | 52 | > 104 | 52 | 6.5 | 52 | 26 | 52 | 26 | 26 | 52 | 6.5 | > 104
7 | Cl.NCCc1c[nH]c2ccc(OCCCCCCCc3ccccc3)cc12 | 7 | 14 | > 112 | 1.8 | 3.5 | 56 | 28 | 14 | 7 | 7 | 7 | 1.8 | 7
8 | Cc1[nH]c2ccc(O)cc2c1CCN | – | – | – | > 60.8 | > 60.8 | – | – | > 60.8 | – | – | > 60.8 | > 60.8 | –
9 | COc1ccc2c(CCN)c[nH]c2c1 | – | – | – | > 60.8 | > 60.8 | – | – | > 60.8 | – | – | > 60.8 | > 60.8 | –
10 | CCCCCCCCCOc1ccc(CCN)cc1 | 5.3 (≈ 20.1 µM) | 11 (≈ 41.8 µM) | > 84 | 0.66 (≈ 2.51 µM) | 2.6 (≈ 9.87 µM) | > 84 | > 84 | 5.3 (≈ 20.1 µM) | 5.3 (≈ 20.1 µM) | 5.3 (≈ 20.1 µM) | 5.3 (≈ 20.1 µM) | 1.3 (≈ 4.93 µM) | 5.3 (≈ 20.1 µM)
11 | CCCCCCCCCOc1ccc2[nH]cc(CCNC(=O)OC(C)(C)C)c2c1 | > 130 | > 130 | > 130 | > 130 | > 130 | > 130 | > 130 | > 130 | > 130 | > 130 | > 130 | > 130 | > 130
12 | NCCc1c[nH]c2ccccc12 [TRYPTAMINE] | – | – | – | > 51 | > 51 | – | – | > 51 | – | – | > 51 | > 51 | –
13 | CC(C)CCCC(C)CCOc1ccc2[nH]cc(CCN)c2c1.Cl (centres undefined) | 6.3 | 13 | > 101 | 1.6 | 6.3 | 25 | 25 | 13 | 6.3 | 13 | 13 | 3.2 | 6.3
